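How tested: cells in 96-well plates exposed to compound for 48 hours at five concentrations. TGI is the concentration that stops growth completely.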
Columns and labels:
Experiment in all cases: NCI tumour cell line growth inhibition, 48 h
[1] = tested on: KM12 colon
[2] = tested on: HL-60(TB) leukemia
[3] = tested on: UACC-257 melanoma
[4] = tested on: U251 CNS
[5] = tested on: SF-295 CNS
[6] = tested on: NCI-H23 lung
[7] = tested on: A549 NSCLC
[8] = tested on: SF-268 CNS
[9] = tested on: BT-549 breast
[10] = tested on: MCF7 breast
[11] = tested on: IGROV1 ovarian
[12] = tested on: NCI/ADR-RES ovarian
[13] = tested on: HT29 colon
[14] = tested on: OVCAR-5 ovarian
[15] = tested on: OVCAR-3 ovarian
[16] = tested on: NCI-H460 lung
[17] = tested on: UO-31 renal
[18] = tested on: HS 578T breast
[19] = tested on: DU-145 prostate
[20] = tested on: COLO 205 colon
[21] = tested on: HOP-62 NSCLC
[22] = tested on: SK-OV-3 ovarian
[23] = tested on: SF-539 CNS
[24] = tested on: NCI-H226 lung
[25] = tested on: RXF 393 renal
[26] = tested on: NCI-H522 lung
[27] = tested on: SW-620 colon
[28] = tested on: ACHN renal
[29] = tested on: MOLT-4 leukemia
[30] = tested on: SK-MEL-5 melanoma
[31] = tested on: M14 melanoma
[32] = tested on: CAKI-1 renal
[33] = tested on: EKVX NSCLC
[34] = tested on: RPMI-8226 leukemia
[35] = tested on: LOX IMVI melanoma
[36] = tested on: HCC-2998 colon
[37] = tested on: UACC-62 melanoma
[38] = tested on: TK-10 renal
[39] = tested on: SNB-19 CNS
[40] = tested on: K-562 leukemia
[41] = tested on: MDA-MB-435
[42] = tested on: 786-0 renal
[43] = tested on: SN12C renal
[44] = tested on: OVCAR-8 ovarian
[45] = tested on: HCT-116 colon
[46] = tested on: MDA-N
[47] = tested on: HCT-15 colon
[48] = tested on: SK-MEL-2 melanoma
[49] = tested on: PC-3 prostate
[50] = tested on: OVCAR-4 ovarian
[51] = tested on: T-47D breast
[52] = tested on: MDA-MB-231 breast
[53] = tested on: SK-MEL-28 melanoma
[54] = tested on: SNB-75 CNS
[55] = tested on: MALME-3M melanoma
[56] = tested on: CCRF-CEM leukemia
[57] = tested on: HOP-92 NSCLC
[58] = tested on: SR leukemia

With CCOc1ccc(NC(=S)/N=C/C(C(=O)Nc2ccccc2C)=C(\C)O)cc1 the TGI [1] was > 100 µM, the TGI [2] was > 100 µM and the TGI [3] was > 100 µM. The TGI [4] was > 100 µM, the TGI [5] was > 100 µM and the TGI [6] was > 100 µM. The TGI [7] was > 100 µM, the TGI [8] was > 100 µM and the TGI [9] was > 100 µM. For the same compound, the TGI [10] was > 100 µM, the TGI [11] was > 100 µM and the TGI [12] was > 100 µM. For the same compound, the TGI [13] was > 100 µM, the TGI [14] was > 100 µM and the TGI [15] was > 100 µM. For the same compound, the TGI [16] was > 100 µM, the TGI [17] was > 100 µM and the TGI [18] was > 100 µM. For the same compound, the TGI [19] was > 100 µM, the TGI [20] was > 100 µM and the TGI [21] was > 100 µM. For the same compound, the TGI [22] was > 100 µM, the TGI [23] was > 100 µM and the TGI [24] was > 100 µM. The TGI [25] was > 100 µM, the TGI [26] was > 100 µM and the TGI [27] was > 100 µM. For the same compound, the TGI [28] was > 100 µM, the TGI [29] was > 100 µM and the TGI [30] was > 100 µM. For the same compound, the TGI [31] was > 100 µM, the TGI [32] was > 100 µM and the TGI [33] was > 100 µM. The TGI [34] was > 100 µM, the TGI [35] was > 100 µM and the TGI [36] was > 100 µM. The TGI [37] was > 100 µM, the TGI [38] was > 100 µM and the TGI [39] was > 100 µM. For the same compound, the TGI [40] was > 100 µM, the TGI [41] was > 100 µM and the TGI [42] was > 100 µM. The TGI [43] was > 100 µM, the TGI [44] was > 100 µM and the TGI [45] was > 100 µM. For the same compound, the TGI [46] was > 100 µM, the TGI [47] was > 100 µM and the TGI [48] was > 100 µM. The TGI [49] was > 100 µM, the TGI [50] was > 100 µM and the TGI [51] was > 100 µM. The TGI [52] was > 100 µM.
With CN(C)CCNC(=O)c1cccc2c(NC(CS)C(=O)O)c3ccccc3nc12 (stereo unspecified) the TGI [1] was > 100 µM, the TGI [53] was 35.7 µM and the TGI [2] was 9.72 µM. The TGI [3] was > 100 µM, the TGI [4] was > 100 µM and the TGI [5] was 28.9 µM. For the same compound, the TGI [6] was 30.4 µM, the TGI [7] was 66.9 µM and the TGI [8] was 39.6 µM. For the same compound, the TGI [9] was 45.6 µM, the TGI [10] was 29.5 µM and the TGI [11] was 28 µM. For the same compound, the TGI [12] was > 100 µM, the TGI [13] was 52.3 µM and the TGI [14] was 60.4 µM. The TGI [15] was > 100 µM, the TGI [54] was 38.5 µM and the TGI [16] was 87.6 µM. For the same compound, the TGI [17] was 11.8 µM, the TGI [55] was 11.3 µM and the TGI [19] was > 100 µM. For the same compound, the TGI [20] was 16 µM, the TGI [21] was 41.6 µM and the TGI [22] was 80.7 µM. For the same compound, the TGI [23] was 18.1 µM, the TGI [24] was 69.2 µM and the TGI [26] was 20.2 µM. The TGI [27] was > 100 µM, the TGI [28] was 59.8 µM and the TGI [29] was 44.3 µM. The TGI [30] was 20 µM, the TGI [31] was 19.5 µM and the TGI [56] was > 100 µM. For the same compound, the TGI [32] was 57.1 µM, the TGI [33] was 39.3 µM and the TGI [35] was 21.1 µM. For the same compound, the TGI [36] was > 100 µM, the TGI [37] was > 100 µM and the TGI [38] was > 100 µM. The TGI [39] was 50.9 µM, the TGI [40] was > 100 µM and the TGI [41] was 21 µM. For the same compound, the TGI [42] was > 100 µM, the TGI [43] was 24 µM and the TGI [44] was > 100 µM. For the same compound, the TGI [45] was > 100 µM, the TGI [46] was 20 µM and the TGI [47] was 26.3 µM. The TGI [48] was 27.7 µM, the TGI [49] was 28.2 µM and the TGI [50] was > 100 µM. The TGI [57] was > 100 µM, the TGI [58] was > 100 µM and the TGI [52] was 23.6 µM.

Reference: PubChem BioAssay (NCI)
